Results published in the NIST ThermoML archive (doi:10.1016/j.fluid.2007.07.016).

Experiment: xn = mol fraction of the nth substance listed
Settings: 101 kPa, Liquid; for viscosity: Capillary tube (Ostwald / Ubbelohde) method; for speed of sound: Linear variable-path acoustic interferometer

Cc1cc(C)cc(C)c1 [1,3,5-trimethylbenzene] + C1CCOC1
Settings	speed of sound, 288.15 K [m/s]	speed of sound, 298.15 K [m/s]	speed of sound, 308.15 K [m/s]	speed of sound, 318.15 K [m/s]	viscosity, 288.15 K [mPa·s]	viscosity, 298.15 K [mPa·s]	viscosity, 308.15 K [mPa·s]	viscosity, 318.15 K [mPa·s]
x2 = 0	1412.3	1369.8	1325.2	1279	0.7592	0.6572	0.5792	0.5066
x2 = 0.0735	1406.8	1363.6	1318.5	1272.2	0.7428	0.6449	0.5698	0.5004
x2 = 0.1513	1400.3	1356.6	1311.2	1264.9	0.7259	0.6321	0.5602	0.4943
x2 = 0.2274	1393.5	1349.5	1303.9	1257.7	0.7089	0.6192	0.5502	0.4875
x2 = 0.2986	1386.7	1342.4	1296.7	1250.6	0.6927	0.6066	0.5402	0.4805
x2 = 0.3672	1379.7	1335.3	1289.6	1243.6	0.6767	0.594	0.5301	0.4732
x2 = 0.4305	1373.5	1328.9	1283.1	1237.3	0.6616	0.5821	0.5203	0.4658
x2 = 0.4912	1367.5	1322.9	1277	1231.5	0.647	0.5703	0.5106	0.4583
x2 = 0.5496	1361.9	1317.3	1271.4	1226	0.6326	0.5586	0.5008	0.4507
x2 = 0.6055	1356.8	1312	1266.1	1220.8	0.6186	0.5472	0.4911	0.4429
x2 = 0.6784	1350.4	1305.4	1259.4	1214.4	0.6	0.5318	0.4779	0.4322
x2 = 0.7516	1344	1298.8	1252.8	1207.9	0.5809	0.5159	0.4642	0.4208
x2 = 0.828	1337.4	1292.1	1246	1201.2	0.5609	0.499	0.4494	0.4084
x2 = 0.879	1333.2	1287.7	1241.6	1196.9	0.5469	0.4872	0.4388	0.3992
x2 = 0.9412	1328.2	1282.6	1236.4	1191.8	0.5299	0.4726	0.4258	0.3879

Cc1cccc(C)c1 [1,3-dimethylbenzene] + C1CCOC1
Settings	speed of sound, 288.15 K [m/s]	speed of sound, 298.15 K [m/s]	speed of sound, 308.15 K [m/s]	speed of sound, 318.15 K [m/s]	viscosity, 288.15 K [mPa·s]	viscosity, 298.15 K [mPa·s]	viscosity, 308.15 K [mPa·s]	viscosity, 318.15 K [mPa·s]
x2 = 0	1373.2	1326.6	1281	1243	0.6696	0.588	0.5229	0.4684
x2 = 0.0722	1370.9	1324	1278.1	1239.4	0.6615	0.5823	0.5193	0.4668
x2 = 0.1486	1368.1	1321	1274.8	1235.5	0.6528	0.5762	0.5151	0.4647
x2 = 0.2134	1365.6	1318.4	1272.1	1232.2	0.6449	0.5703	0.511	0.4621
x2 = 0.2804	1362.9	1315.6	1269.2	1228.7	0.6363	0.5638	0.5061	0.4587
x2 = 0.3536	1359.7	1312.5	1265.9	1224.9	0.6263	0.556	0.4999	0.4542
x2 = 0.4255	1356.4	1309.3	1262.6	1221.1	0.616	0.5477	0.4932	0.4489
x2 = 0.4864	1353.5	1306.4	1259.7	1217.8	0.6068	0.5401	0.4869	0.4438
x2 = 0.5476	1350.5	1303.4	1256.6	1214.4	0.5971	0.5321	0.48	0.4382
x2 = 0.6041	1347.5	1300.5	1253.7	1211.1	0.5879	0.5243	0.4732	0.4323
x2 = 0.6751	1343.6	1296.7	1249.9	1206.9	0.5757	0.5139	0.464	0.4241
x2 = 0.7396	1339.8	1293.1	1246.4	1203.1	0.5642	0.5038	0.455	0.4162
x2 = 0.8005	1336.1	1289.6	1243	1199.5	0.5529	0.4939	0.446	0.408
x2 = 0.8722	1331.6	1285.4	1238.9	1195.1	0.5392	0.4817	0.4347	0.3974
x2 = 0.9378	1327.3	1281.4	1235.2	1191.1	0.5261	0.4699	0.4237	0.387
